The numbers were not newly measured in patent US12128121B2, “Compositions comprising organo-silanol compounds, and applications” (EXSYMOL, priority 2020, dated 2024), which cites them from elsewhere.

SMILES strings stand for the structures. Like-named read-outs stand apart in the source and are kept apart here.

As to `C[Si](O)(O)O` [CH3—Si(OH)3, monomethylsilanetriol], the concentration in water is roughly 588 mg Si/I (as silicon, CH3—Si(OH)3) and roughly 21 mM (limit before self-condensation).
